Assay results published in patent US8309577B2, “Quinuclidine compounds as α-7 nicotinic acetylcholine receptor ligands” (Bristol-Myers Squibb Company, priority 2008, dated 2012).
Where two headings read alike, the source gives them in different places.

Biological target: T1, α-7 nicotinic acetylcholine receptor channel expressed in HEK 293 cells (Rattus norvegicus, UniProt Q05941)
T1 construct: expressed in transfected cells
Assay: Ca2+-sensitive fluorescence-based FLIPR assay, α7 nicotinic ACh receptor channel function (agonist)
Assay type: cell-based
Experimental: I) α7 Nicotinic Acetycholine Receptor Binding. Membranes were prepared for binding using HEK293 cells stably expressing the rat α7 nicotinic acetycholine receptor (rat α7 nAChR). Cells were homogenized at 4° C. in hypotonic lysis buffer consisting of 10 mM Tris (pH 7.4), 5 mM EDTA and protease inhibitors and centrifuged at 32000×g for 20 minutes. The pellet was washed once in membrane wash buffer consisting of 50 mM Tris (pH 7.4), 1 mM EDTA and protease inhibitors and centrifuged at 32000×g for 20 minutes. This pellet was then resuspended in assay buffer consisting 50 mM KH2PO4 (pH 7.4 at 25° C.), 1 mM EDTA, 0.005% Triton-X 100 and 0.1% (v/v) Sigma Protease Inhibitor Cocktail. Aliquots were then frozen in dry ice/ethanol and kept at −80° C. until the day of the assay. II) A Ca^2+-Sensitive, Fluorescence-Based Assay α-7 for Nicotinic Acetylcholine Receptor Channel Function In Mammalian Cells (“FLIPR”). Summary: Lead compounds are evaluated for agonist activity at […], α3β4, […], and α1β1δ1ε sub-types of nicotinic ACh receptor ion channels expressed in mammalian HEK 293 cells. Agonist potency and efficacy values are determined from kinetic fluorescence Ca^2+ influx measurements made using a 384 well FLIPR (Fluorescence Image Plate Reader). […] In this assay, channel expressing HEK cell lines seeded in 384 well assay plates are loaded with a membrane permeant fluorescent Ca^2+ indicator dye, whose 510 nm green emission signal increases in response to elevation of intracellular Ca^2+ concentration. The basal fluorescence from the cells is monitored in real time, followed by the acute addition of test compounds.
Materials and Methods: Reagents: The acetomethoxy (AM) ester of the Ca^2+ indicator dye Fluo-4 was obtained from InVitrogen, (Carlsbad, Calif.). Acetylcholine and all buffer constituents were purchased from Sigma Chemical Company, St. Louis, Mo. G418 and Minimal Essential Medium were purchased from InVitrogen Life Technologies, Carlsbad, Calif. Fetal bovine serum was purchased from (InVitrogen, Carlsbad, Calif.).
Cell Culture: HEK-293 cells were grown in Minimal Essential Medium containing 10% (v/v) fetal bovine serum at 37° C. in a 5% CO2 incubator. HEK-293 cells stably expressing the ion channels were grown in the same medium with the addition of 500 μg/ml G418.
Ca^2+ flux assays of Ca^2+ channels expressed in HEK-293 cells: HEK-293 cells expressing the ion channels of interest were plated in 384 well, black-walled, clear-bottomed, poly-D-lysine coated plates at a density of ˜20,000 cells/well in 20 μl of Minimal Essential Medium containing 10% (v/v) fetal bovine serum and incubated for 2 days at 29° C. in a 5% CO2 incubator. Prior to assay, cells were loaded with the Fluo-4 AM ester. […] Dye loading was allowed to proceed for 90 minutes at room temperature at which time the dye loading solution was removed and replaced with 40 μl/well of Hanks buffer. Cells loaded with dye were loaded onto a FLIPR384 (Molecular Devices, Sunnyvale, Calif.). Fluo-4 dye was excited using the 488 nm line of an argon laser. Emission was filtered using a 540+/−30 nm bandpass filter. For evaluation of the effects of test compounds using the Ca^2+ flux assay, compounds to be tested were provided in assay ready plates. For nicotinic receptor ion channel expressing cells, the assay was initiated by the addition of 20 μl/well of Hanks buffer containing test compounds. For all assays, data were collected at 1 Hz for 10 seconds (baseline), at which time the compound containing stimulus buffers are added, and further measurements collected at 0.33 Hz for 3 min.
Data Analysis: The statistical robustness of the nicotinic receptor Ca^2+ flux assays is determined from blanks and totals wells. […] The raw fluorescence units data files generated on the FLIPR plate reader are automatically exported and processed by in-house data analysis tools.

[1] = FLIPR α7 activity rating (EC50, nM), Table 1, HEK 293 cells, agonist Ca2+ flux
[2] = FLIPR α7 (EC50, nM), Table 1, HEK 293 cells, agonist Ca2+ flux

T1 sequence (Q05941 23-502): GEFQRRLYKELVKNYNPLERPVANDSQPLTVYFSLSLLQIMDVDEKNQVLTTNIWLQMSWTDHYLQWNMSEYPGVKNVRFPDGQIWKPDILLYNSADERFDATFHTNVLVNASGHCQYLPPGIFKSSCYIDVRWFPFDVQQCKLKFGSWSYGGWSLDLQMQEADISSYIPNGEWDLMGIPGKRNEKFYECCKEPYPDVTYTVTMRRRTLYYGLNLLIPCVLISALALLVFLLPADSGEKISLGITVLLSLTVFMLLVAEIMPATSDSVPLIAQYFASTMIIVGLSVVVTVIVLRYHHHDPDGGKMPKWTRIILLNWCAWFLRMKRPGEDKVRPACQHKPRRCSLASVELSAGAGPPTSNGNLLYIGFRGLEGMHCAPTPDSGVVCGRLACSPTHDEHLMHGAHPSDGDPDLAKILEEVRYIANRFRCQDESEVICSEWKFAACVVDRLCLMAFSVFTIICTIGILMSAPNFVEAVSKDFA

| Structure (SMILES) | EC50 [1] [nM] | EC50 [nM] | EC50 [2] [nM] |
| --- | --- | --- | --- |
| COc1ccc(-c2cc(NC3=NC[C@@]4(CN5CCC4CC5)O3)ncn2)cn1 [Example 43, (R)—N-(6-(6-Methoxypyridin-3-yl)pyrimidin-4-yl)-4H-1′-azaspiro[oxazole-5,3′-bicyclo[2.2.2]octan]-2-amine] | < 100 | – | – |
| c1ccc2cc(-c3cc(NC4=NC[C@@]5(CN6CCC5CC6)O4)ncn3)ccc2c1 [Example 44, (R)—N-(6-(Naphthalen-2-yl)pyrimidin-4-yl)-4H-1′-azaspiro[oxazole-5,3′-bicyclo[2.2.2]octan]-2-amine] | 100 to 1000 | – | – |
| c1ccc(-c2csc(NC3=NCC4(CN5CCC4CC5)O3)n2)cc1 (stereo not drawn) [Example 45] | 100 to 1000 | – | – |
| c1cc2nc(NC3=NCC4(CN5CCC4CC5)O3)sc2cc1N1CCOCC1 (stereo not drawn) [Example 46] | 1000 to 100000 | 2000 | – |
| Fc1ccc2sc(NC3=NCC4(CN5CCC4CC5)O3)nc2c1 (stereo not drawn) [Example 47] | < 100 | – | – |
| FC(F)(F)c1ccc2nc(NC3=NCC4(CN5CCC4CC5)O3)sc2c1 (stereo not drawn) [Example 48] | 100 to 1000 | – | 790 |
| FC(F)(F)Oc1ccc2nc(NC3=NCC4(CN5CCC4CC5)O3)sc2c1 (stereo not drawn) [Example 49] | 1000 to 100000 | 3330 | – |
| Fc1cccc2sc(NC3=NCC4(CN5CCC4CC5)O3)nc12 (stereo not drawn) [Example 50] | < 100 | – | – |
| Fc1cc2nc(NC3=NCC4(CN5CCC4CC5)O3)sc2cc1F (stereo not drawn) [Example 52] | 100 to 1000 | – | 325 |
| COc1ccc2sc(NC3=NCC4(CN5CCC4CC5)O3)nc2c1 (stereo not drawn) [Example 53] | 1000 to 100000 | – | – |
| COc1cccc2sc(NC3=NCC4(CN5CCC4CC5)O3)nc12 (stereo not drawn) [Example 54] | 1000 to 100000 | – | – |
| COc1cc2nc(NC3=NCC4(CN5CCC4CC5)O3)sc2cc1OC (stereo not drawn) [Example 55] | 1000 to 100000 | – | – |
| c1ccc(-c2nnc(NC3=NCC4(CN5CCC4CC5)O3)s2)cc1 (stereo not drawn) [Example 56] | 1000 to 100000 | – | – |
| CN(C)C(=O)c1ccc2nc(NC3=NCC4(CN5CCC4CC5)O3)sc2c1 (stereo not drawn) [Example 57] | 1000 to 100000 | 3900 | – |
| O=C(c1ccc2nc(NC3=NCC4(CN5CCC4CC5)O3)sc2c1)N1CCCCC1 (stereo not drawn) [Example 58] | 1000 to 100000 | – | – |
| Fc1ccc(-c2nnc(NC3=NCC4(CN5CCC4CC5)O3)s2)cc1 (stereo not drawn) [Example 59] | 1000 to 100000 | 4240 | – |
| c1coc(-c2nnc(NC3=NCC4(CN5CCC4CC5)O3)s2)c1 (stereo not drawn) [Example 60] | 1000 to 100000 | 2550 | – |
| Brc1ccc2nc(NC3=NCC4(CN5CCC4CC5)O3)sc2c1 (stereo not drawn) [Example 61] | 100 to 1000 | – | – |
| Cc1nc2cc(NC3=NCC4(CN5CCC4CC5)O3)ccc2s1 (stereo not drawn) [Example 63] | 1000 to 100000 | 2600 | – |
| Clc1ccc2nc(NC3=NCC4(CN5CCC4CC5)O3)nn2c1 (stereo not drawn) [Example 66] | 100 to 1000 | – | 360 |
| Cc1noc(C)c1NC1=NCC2(CN3CCC2CC3)O1 (stereo not drawn) [Example 67] | 1000 to 100000 | – | – |
| Cc1cnn(C)c1NC1=NCC2(CN3CCC2CC3)O1 (stereo not drawn) [Example 68] | 1000 to 100000 | – | – |

| Structure (SMILES) | EC50 [1] [nM] | EC50 [nM] | EC50 [2] [nM] |
| --- | --- | --- | --- |
| N#Cc1ccc2nc(NC3=NCC4(CN5CCC4CC5)O3)sc2c1 (stereo not drawn) [Example 70] | 100 to 1000 | – | – |
| c1nc2cc(NC3=NCC4(CN5CCC4CC5)O3)ccc2s1 (stereo not drawn) [Example 71] | 1000 to 100000 | – | – |
| c1nc2ccc(NC3=NCC4(CN5CCC4CC5)O3)cc2s1 (stereo not drawn) [Example 72] | 1000 to 100000 | – | – |
| c1ccc2ncc(NC3=NCC4(CN5CCC4CC5)O3)cc2c1 (stereo not drawn) [Example 73] | 1000 to 100000 | 7550 | – |
| Cc1ccc2nc(NC3=NCC4(CN5CCC4CC5)O3)nn2c1 (stereo not drawn) [Example 74] | < 100 | – | – |
| c1cnc2cc(NC3=NCC4(CN5CCC4CC5)O3)ccc2n1 (stereo not drawn) [Example 75] | 1000 to 100000 | – | – |
| COc1ccc2nc(NC3=NCC4(CN5CCC4CC5)O3)[nH]c2c1 (stereo not drawn) [Example 76] | 100 to 1000 | – | – |
| Fc1ccc2nc(NC3=NCC4(CN5CCC4CC5)O3)[nH]c2c1 (stereo not drawn) [Example 77] | 100 to 1000 | – | 355 |
| c1cc2cn[nH]c2cc1NC1=NCC2(CN3CCC2CC3)O1 (stereo not drawn) [Example 78] | 1000 to 100000 | – | – |
| FC(F)(F)c1ccc2nc(NC3=NCC4(CN5CCC4CC5)O3)nn2c1 (stereo not drawn) [Example 83] | 100 to 1000 | – | 240 |
| c1cnc2ccc(NC3=NCC4(CN5CCC4CC5)O3)cc2c1 (stereo not drawn) [Example 85] | 1000 to 100000 | – | – |
| O=C1Cc2cc(NC3=NCC4(CN5CCC4CC5)O3)ccc2N1 (stereo not drawn) [Example 86] | 1000 to 100000 | – | – |
| c1ccn2nc(NC3=NCC4(CN5CCC4CC5)O3)nc2c1 (stereo not drawn) [Example 87] | < 100 | – | – |
| c1ccc(-c2csc(NC3=NCC4(CN5CCC4CC5)O3)n2)nc1 (stereo not drawn) [Example 88] | 100 to 1000 | – | – |
| Cc1cc(C)c2nc(NC3=NCC4(CN5CCC4CC5)O3)sc2c1 (stereo not drawn) [Example 89] | < 100 | – | – |
| CC(=O)Nc1ccc2nc(NC3=NCC4(CN5CCC4CC5)O3)sc2c1 (stereo not drawn) [Example 90] | 100 to 1000 | – | 130 |
| CCc1ccc2nc(NC3=NCC4(CN5CCC4CC5)O3)sc2c1 (stereo not drawn) [Example 91] | 100 to 1000 | – | – |
| Cc1cnc(NC2=NCC3(CN4CCC3CC4)O2)s1 (stereo not drawn) [Example 92] | < 100 | – | – |
| Cc1ccn2nc(NC3=NCC4(CN5CCC4CC5)O3)nc2c1 (stereo not drawn) [Example 94] | < 100 | – | – |
| Cn1c(-c2ccccc2)cnc1NC1=NCC2(CN3CCC2CC3)O1 (stereo not drawn) [Example 96] | 1000 to 100000 | – | – |
| Cc1cccn2nc(NC3=NCC4(CN5CCC4CC5)O3)nc12 (stereo not drawn) [Example 97] | 100 to 1000 | – | – |
| Cc1nc(NC2=NCC3(CN4CCC3CC4)O2)sc1C(=O)N(C)C (stereo not drawn) [Example 98] | 1000 to 100000 | – | – |

| Structure (SMILES) | EC50 [1] [nM] | EC50 [nM] | EC50 [2] [nM] |
| --- | --- | --- | --- |
| Cc1ccc(C)c2sc(NC3=NCC4(CN5CCC4CC5)O3)nc12 (stereo not drawn) [Example 102] | < 100 | – | – |
| Cc1cc(Cl)c2nc(NC3=NCC4(CN5CCC4CC5)O3)sc2c1 (stereo not drawn) [Example 103] | 100 to 1000 | – | 280 |
| FC(F)Oc1ccc2nc(NC3=NCC4(CN5CCC4CC5)O3)sc2c1 (stereo not drawn) [Example 104] | 100 to 1000 | – | – |
| c1ccc(Cc2cnc(NC3=NCC4(CN5CCC4CC5)O3)s2)cc1 (stereo not drawn) [Example 105] | 100 to 1000 | – | – |
| Brc1cnc(NC2=NCC3(CN4CCC3CC4)O2)cn1 (stereo not drawn) [Example 107] | 100 to 1000 | – | – |
| Cc1csc(NC2=NCC3(CN4CCC3CC4)O2)n1 (stereo not drawn) [Example 109] | 100 to 1000 | – | – |
| CC(C)(C)c1csc(NC2=NCC3(CN4CCC3CC4)O2)n1 (stereo not drawn) [Example 110] | 100 to 1000 | – | 450 |
| COc1ccc(C)c2nc(NC3=NCC4(CN5CCC4CC5)O3)sc12 (stereo not drawn) [Example 112] | < 100 | – | – |
| c1ccc2c(NC3=NCC4(CN5CCC4CC5)O3)n[nH]c2c1 (stereo not drawn) [Example 113] | < 100 | – | – |
| COc1ccn2nc(NC3=NC[C@@]4(CN5CCC4CC5)O3)nc2c1 [Example 125] | < 100 | – | 17 |
| Clc1cncc(NC2=NC[C@@]3(CN4CCC3CC4)O2)n1 [Example 127] | 1000 to 100000 | – | – |
| COc1ccc(-c2nc(NC3=NC[C@@]4(CN5CCC4CC5)O3)sc2C)cc1 [Example 129] | 100 to 1000 | – | – |
| COc1nc(Br)cnc1NC1=NC[C@@]2(CN3CCC2CC3)O1 [Example 130] | 100 to 1000 | – | – |
| Clc1cccc2[nH]nc(NC3=NC[C@@]4(CN5CCC4CC5)O3)c12 [Example 132] | 100 to 1000 | – | – |
| Brc1ccc2c(NC3=NC[C@@]4(CN5CCC4CC5)O3)n[nH]c2c1 [Example 133] | < 100 | – | – |
| Clc1ccc2c(NC3=NC[C@@]4(CN5CCC4CC5)O3)n[nH]c2c1 [Example 134] | < 100 | – | – |
| COc1ccc2c(NC3=NC[C@@]4(CN5CCC4CC5)O3)n[nH]c2c1 [Example 135] | < 100 | – | – |
| Brc1cnc(NC2=NC[C@@]3(CN4CCC3CC4)O2)cn1 [Example 136] | < 100 | – | – |
| c1cncc(-c2ncc(NC3=NC[C@@]4(CN5CCC4CC5)O3)cn2)c1 [Example 138] | 1000 to 100000 | – | – |
| c1ccc2nc(NC3=NC[C@@]4(CN5CCC4CC5)O3)ccc2c1 [Example 139] | < 100 | – | 16 |
